Test results published in patent US20100204231A1, “AMINO-THIAZOLYL-PYRIMIDINE DERIVATIVES AND THEIR USE FOR THE TREATMENT OF CANCER” (ASTRAZENECA AB, priority 2007, published 2010).
pIC50: −log10 of the molar value.

Each molecule was assayed against T1, C-terminal His6-tagged, recombinant, human JAK2, amino acids 808-end (Homo sapiens, UniProt O60674) (assay: JAK2 kinase activity assay (Alphascreen)). Conditions: 150 pM JAK2 enzyme, 30 μM ATP, 80 nM Tyk2 peptide substrate, 60 minutes, room temperature; read-out: JAK inhibitory activity IC50.
T1 construct: human JAK2, amino acids 808-end; His6 (C); purchased Upstate Biotechnology; host or cells: baculovirus in Sf21 cells
Assay type: biochemical
Experimental: JAK2 kinase activity was determined by measuring the kinase's ability to phosphorylate synthetic tyrosine residues within a generic polypeptide substrate using an Amplified Luminescent Proximity Assay (Alphascreen) technology (PerkinElmer, 549 Albany Street, Boston, Mass.).
To measure JAK2 kinase activity, a commercially available purified enzyme may be used. The enzyme may be C-terminal His6-tagged, recombinant, human JAK2, amino acids 808-end, (Genbank Accession number NM 004972) expressed by baculovirus in Sf21 cells (Upstate Biotechnology MA). After incubation of the kinase with a biotinylated substrate and adenosine triphosphate (ATP) for 60 minutes at room temperature, the kinase reaction may be stopped by the addition of 30 mM ethylenediaminetetraacetic acid (EDTA). The reaction may be performed in 384 well microtitre plates and the reaction products may be detected with the addition of streptavidin coated Donor Beads and phosphotyrosine-specific antibodies coated Acceptor Beads using the EnVision Multilabel Plate Reader after an overnight incubation at room temperature.

T1 sequence (O60674 808-1132 limits assumed): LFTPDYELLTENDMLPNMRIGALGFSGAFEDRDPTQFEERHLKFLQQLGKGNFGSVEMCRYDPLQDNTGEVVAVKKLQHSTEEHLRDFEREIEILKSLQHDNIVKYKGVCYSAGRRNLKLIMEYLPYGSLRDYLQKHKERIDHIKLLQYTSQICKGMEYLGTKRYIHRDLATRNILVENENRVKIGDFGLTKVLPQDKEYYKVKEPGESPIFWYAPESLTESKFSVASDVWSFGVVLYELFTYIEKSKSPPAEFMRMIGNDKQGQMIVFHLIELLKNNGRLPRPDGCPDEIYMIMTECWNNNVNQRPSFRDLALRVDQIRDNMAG

Row | pIC50 | SMILES
1 | 8.22 | Cc1cnc(Nc2nc(N[C@@H](C)c3ccc(F)cc3)ncc2Cl)s1 [Example 1, 5-Chloro-N^2-[(1S)-1-(4-fluorophenyl]ethyl)-N^4-(5-methyl-1,3-thiazol-2-yl)pyrimidine-2,4-diamine]
2 | 6.77 | COC(=O)c1cnc(Nc2nc(N[C@@H](C)c3ccc(F)cc3)ncc2Cl)s1 [Example 2, Methyl 2-[(5-chloro-2-{[(1S)-1-(4-fluorophenyl)ethyl]amino}pyrimidin-4-yl)amino]-1,3-thiazole-5-carboxylate]
3 | 8.52 | C[C@H](Nc1nc(Nc2ncc(C#N)s2)cc(N2CCOCC2)n1)c1ccc(F)cn1 [Example 8, 2-[(2-{[(1S)-1-(5-Fluoropyridin-2-yl)ethyl]amino}-6-morpholin-4-ylpyrimidin-4-yl)amino]-1,3-thiazole-5-carbonitrile]
4 | 6.04 | Cc1cnc(Nc2nc(N[C@@H](C)c3ccc(F)cn3)ncc2Cl)s1 [Example 3, 5-Chloro-N^2-[(1S)-1-(5-fluoropyridin-2-yl)ethyl]-N^4-(5-methyl-1,3-thiazol-2-yl)pyrimidine-2,4-diamine]
5 | 8.52 | Cc1cnc(Nc2cc(N3CCN(C)CC3)nc(N[C@@H](C)c3ccc(F)cn3)n2)s1 [Example 5, N^2-[(S)-1-(5-Fluoro-pyridin-2-yl)-ethyl]-6-(4-methyl-piperazin-1-yl)-N^4-(5-methyl-thiazol-2-yl)-pyrimidine-2,4-diamine]
6 | 8.52 | Cc1cnc(Nc2nc(N[C@@H](C)c3ncc(F)cn3)nc(N3CCOCC3)c2F)s1 [Example 4, 5-Fluoro-N^2-[(1S)-1-(5-fluoropyrimidin-2-yl)ethyl]-N^4-(5-methyl-1,3-thiazol-2-yl)-6-morpholin-4-ylpyrimidine-2,4-diamine]
7 | 8.52 | COc1cc(Nc2ncc(C)s2)nc(N[C@@H](C)c2ncc(F)cn2)n1 [Example 10, (S)—N^2-(1-(5-Fluoropyrimidin-2-yl)ethyl)-6-methoxy-N^4-(5-methylthiazol-2-yl)pyrimidine-2,4-diamine]
